The target in this assay is receptor for advanced glycation end products (RAGE) (Homo sapiens, UniProt Q15109). In words: SPR. The format is binding.

The term Kd denotes a measure of binding affinity in units of concentration. A higher Kd goes with weaker binding.

The structures appear in SMILES notation.

Chain of receptor for advanced glycation end products (RAGE) (Q15109 23-342 limits assumed): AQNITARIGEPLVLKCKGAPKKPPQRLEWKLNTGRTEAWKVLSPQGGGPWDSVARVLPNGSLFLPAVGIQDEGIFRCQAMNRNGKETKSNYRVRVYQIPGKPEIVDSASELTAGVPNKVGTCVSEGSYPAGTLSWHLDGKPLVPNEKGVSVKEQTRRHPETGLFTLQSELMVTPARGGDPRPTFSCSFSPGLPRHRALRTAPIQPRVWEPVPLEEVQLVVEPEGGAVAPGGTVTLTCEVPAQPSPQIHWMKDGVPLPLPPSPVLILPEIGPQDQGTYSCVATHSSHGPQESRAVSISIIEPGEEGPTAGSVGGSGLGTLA

As for `CCCCCCCC/C=C\CCCCCCCC(=O)OC[C@@H](O)COP(=O)(O)O` [LPA, 1-oleoyl-2-hydroxy-sn-glycero-3-phosphate], the dissociation constant (Kd) was found to be 84.9 nM.

These data come from publication PMC3526353 (The Journal of Experimental Medicine, 2012).
